Biological target: Neuronal acetylcholine receptor; alpha4/beta2 (Homo sapiens, UniProt P17787+P43681)
Assay: Binding affinity at heteropentameric Nicotinic acetylcholine receptor alpha4-beta2 subtype using […] as radioligand
Assay type: protein-complex assay

Neuronal acetylcholine receptor; alpha4/beta2, sequence (P17787 whole entry): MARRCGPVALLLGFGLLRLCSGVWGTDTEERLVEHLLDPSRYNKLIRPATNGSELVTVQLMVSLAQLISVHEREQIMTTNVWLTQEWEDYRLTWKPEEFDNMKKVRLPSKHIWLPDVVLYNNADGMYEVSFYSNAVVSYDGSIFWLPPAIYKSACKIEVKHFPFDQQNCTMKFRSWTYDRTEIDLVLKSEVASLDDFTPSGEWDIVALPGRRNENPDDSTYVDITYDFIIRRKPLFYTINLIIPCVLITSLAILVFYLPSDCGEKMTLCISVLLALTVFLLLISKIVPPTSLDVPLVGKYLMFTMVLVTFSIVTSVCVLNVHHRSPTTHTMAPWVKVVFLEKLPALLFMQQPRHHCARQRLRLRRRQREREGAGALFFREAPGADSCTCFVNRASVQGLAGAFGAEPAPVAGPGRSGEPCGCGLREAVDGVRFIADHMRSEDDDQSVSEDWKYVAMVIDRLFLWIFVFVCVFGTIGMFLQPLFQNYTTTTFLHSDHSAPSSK
Neuronal acetylcholine receptor; alpha4/beta2, sequence (P43681 whole entry): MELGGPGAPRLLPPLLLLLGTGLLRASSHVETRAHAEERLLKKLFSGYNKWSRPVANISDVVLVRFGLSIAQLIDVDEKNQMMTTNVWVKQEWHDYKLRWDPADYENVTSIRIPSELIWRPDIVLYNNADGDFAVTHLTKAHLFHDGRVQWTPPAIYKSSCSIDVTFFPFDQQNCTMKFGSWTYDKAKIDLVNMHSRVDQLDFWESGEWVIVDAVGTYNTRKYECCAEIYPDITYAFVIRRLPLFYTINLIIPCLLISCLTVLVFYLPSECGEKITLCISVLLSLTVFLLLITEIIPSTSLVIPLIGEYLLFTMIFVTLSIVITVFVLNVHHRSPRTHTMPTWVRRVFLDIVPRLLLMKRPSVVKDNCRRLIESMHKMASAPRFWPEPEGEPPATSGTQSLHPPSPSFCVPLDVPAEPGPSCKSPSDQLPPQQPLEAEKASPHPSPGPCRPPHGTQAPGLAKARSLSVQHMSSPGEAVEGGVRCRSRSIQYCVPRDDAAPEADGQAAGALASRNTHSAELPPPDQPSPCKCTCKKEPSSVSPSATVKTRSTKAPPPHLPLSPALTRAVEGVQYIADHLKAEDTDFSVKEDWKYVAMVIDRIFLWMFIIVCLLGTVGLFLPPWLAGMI

Row | Structure (SMILES) | Ki
1 | CN1CCCCC1c1cccnc1 (stereo not given) | 0.45 µM
2 | CN1C2CCC1C(c1ccc(Cl)nc1)C2 (stereo not given) | 0.00026 µM
3 | c1cncc(C2CCN2)c1 (stereo not given) | 0.0011 µM
4 | c1cncc(C2CCCCN2)c1 (stereo not drawn) [DL-ANABASINE] | 0.092 µM
5 | C[N+](C)(C)C [TETRAMETHYLAMMONIUM ION] | 0.024 µM

Biological target: Neuronal acetylcholine receptor subunit alpha-7 (Homo sapiens, UniProt P36544)
Assay: Binding affinity at homopentameric Nicotinic acetylcholine receptor alpha-7 subtype using [3H]-alpha-bungarotoxin as radioligand

Neuronal acetylcholine receptor subunit alpha-7, sequence (P36544 whole entry): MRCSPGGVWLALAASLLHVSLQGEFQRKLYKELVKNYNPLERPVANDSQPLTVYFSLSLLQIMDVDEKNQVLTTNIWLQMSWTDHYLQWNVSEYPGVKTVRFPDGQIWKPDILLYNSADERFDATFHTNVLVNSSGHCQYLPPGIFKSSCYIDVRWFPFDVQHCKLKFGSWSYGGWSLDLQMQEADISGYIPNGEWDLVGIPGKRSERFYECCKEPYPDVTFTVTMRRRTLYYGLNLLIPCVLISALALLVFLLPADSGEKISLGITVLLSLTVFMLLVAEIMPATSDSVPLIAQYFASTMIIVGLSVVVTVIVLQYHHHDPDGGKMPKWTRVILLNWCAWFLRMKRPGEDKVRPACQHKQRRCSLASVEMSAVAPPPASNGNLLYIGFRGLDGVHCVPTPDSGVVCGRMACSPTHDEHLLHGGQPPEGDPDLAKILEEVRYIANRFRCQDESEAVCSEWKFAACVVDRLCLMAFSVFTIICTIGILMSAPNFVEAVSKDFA

Row | Structure (SMILES) | Ki
6 | CN1CCCCC1c1cccnc1 (stereo not given) | 9.7 µM
7 | c1cncc(C2CCCCN2)c1 (stereo not drawn) [DL-ANABASINE] | 0.45 µM
8 | Clc1ccc(C2CC3CCC2N3)cn1 (stereo not given) [EPIBATIDINE] | 0.025 µM
9 | c1cncc([C@@H]2CCCN2)c1 [NORNICOTINE] | 0.73 µM
10 | C[N+](C)(C)C [TETRAMETHYLAMMONIUM ION] | 2.3 µM

From ChEMBL document CHEMBL1132338, “Molecular recognition in nicotinic acetylcholine receptors: the importance of pi-cation interactions” (J Med Chem, 1999)
